In patent US20070049593A1 (priority 2004, published 2007) one finds IC50 data, which are given here for 19 molecules.

Molecules are shown by their SMILES. Counter-ions that a name gives are not always drawn. A value given as a limit tells only on which side of the number the result lay.

The target in this test is T1, HCV polymerase (Hepatitis C virus genotype 1b, UniProt P26663).
T1 construct: a region encoding NS5B (J Virol 1991 March, 65(3), 1105-13, 544 amino acids after deletion of 47 amino acids on the C-terminal); 6xHis (C); made in house; host or cells: Escherichia coli
T1 sequence (P26663 2420-2963): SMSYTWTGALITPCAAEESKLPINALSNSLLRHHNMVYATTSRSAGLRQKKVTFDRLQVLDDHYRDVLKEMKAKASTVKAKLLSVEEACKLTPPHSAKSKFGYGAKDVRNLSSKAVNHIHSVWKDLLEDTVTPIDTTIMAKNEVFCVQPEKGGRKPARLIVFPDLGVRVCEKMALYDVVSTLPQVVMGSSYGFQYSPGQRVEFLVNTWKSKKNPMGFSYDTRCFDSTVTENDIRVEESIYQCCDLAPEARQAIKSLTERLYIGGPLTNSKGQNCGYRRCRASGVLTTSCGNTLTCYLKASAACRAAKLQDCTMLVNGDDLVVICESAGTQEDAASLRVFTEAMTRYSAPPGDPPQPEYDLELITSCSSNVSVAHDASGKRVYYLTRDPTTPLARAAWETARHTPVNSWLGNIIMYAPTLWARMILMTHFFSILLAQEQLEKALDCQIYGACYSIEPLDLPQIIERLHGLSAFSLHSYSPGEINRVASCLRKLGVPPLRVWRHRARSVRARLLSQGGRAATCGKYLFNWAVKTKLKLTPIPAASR
In words: biochemical. Further details: species or system HCV BK strain. In outline:
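Recombinant HCV BK-strain NS5B (C-terminal 47 aa deleted, His6-tagged, E. coli), 0.5 μg/ml, run with 5 μg/ml in vitro-transcribed RNA template (polyU/3′X), ATP/GTP/CTP 50 μM, UTP 2 μM plus [3H]UTP, pH 7.5, 25° C, 90 min. TCA-precipitated RNA counted by scintillation; IC50 from activity with vs without compound.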

Turning to `COc1ccc2c(c1)OCCn1c-2c(C2CCCCC2)c2ccc(C(=O)NC(C)(C)c3nc4cc(C(=O)NCCO)ccc4[nH]3)cc21` [Example 2-390, N-{1-[5-(2-hydroxyethylcarbamoyl)-1H-benzimidazol-2-yl]-1-methylethyl}-12-cyclohexyl-3-methoxy-6,7-dihydro-5-oxa-7a-azadibenzo[a,e]azulene-9-carboxamide], the half-maximal inhibitory concentration (IC50) was less than 100 nM.
`COCC1CCCN(CCCN2CCn3c(c(C4CCCCC4)c4ccc(C(=O)O)cc43)-c3ccc(Cl)cc32)C1` (stereo not shown) [Example 1-352, 3-chloro-13-cyclohexyl-5-[3-(3-methoxymethylpiperidin-1-yl)propyl]-6,7-dihydro-5H-benzo[5,6][1,4]diazepino[7,1-a]indole-10-carboxylic acid monohydrochloride] yielded an IC50 of less than 100 nM.
`COC1CCN(CCN2CCn3c(c(C4CCCCC4)c4ccc(C(=O)O)cc43)-c3ccccc32)C1` (stereo not shown) [Example 1-238, 13-cyclohexyl-5-[2-(3-methoxypyrrolidin-1-yl)ethyl]-6,7-dihydro-5H-benzo[5,6][1,4]diazepino[7,1-a]indole-10-carboxylic acid dihydrochloride] yielded an IC50 of less than 100 nM.
As for `CCN1CCC(CCN2CCn3c(c(C4CCCCC4)c4ccc(C(=O)O)cc43)-c3ccccc32)CC1` [Example 1-93, 13-cyclohexyl-5-[2-(1-ethylpiperidin-4-yl)ethyl]-6,7-dihydro-5H-benzo[5,6][1,4]diazepino[7,1-a]indole-10-carboxylic acid dihydrochloride], the figure is less than 100 nM.
The same measure for `CNC(=O)N1CCN(CCN2CCn3c(c(C4CCCCC4)c4ccc(C(=O)O)cc43)-c3ccccc32)CC1` [Example 1-330, 13-cyclohexyl-5-[2-(4-methylcarbamoylpiperazin-1-yl)ethyl]-6,7-dihydro-5H-benzo[5,6][1,4]diazepino[7,1-a]indole-10-carboxylic acid dihydrochloride]: less than 100 nM.
`CCn1c([C@H](Cc2ccc(O)cc2)NC(=O)c2ccc3c(C4CCCCC4)c4n(c3c2)CCOc2cc(OC)ccc2-4)n[nH]c1=O` [Example 2-533, N—[(S)-1-(4-ethyl-5-oxo-4,5-dihydro-1H-1,2,4-triazol-3-yl)-2-(4-hydroxyphenyl)ethyl]-12-cyclohexyl-3-methoxy-6,7-dihydro-5-oxa-7a-azadibenzo[a,e]azulene-9-carboxamide] had an IC50 of less than 100 nM.
The same measure for `CCC1CCN(CCN2CCn3c(c(C4CCCCC4)c4ccc(C(=O)O)cc43)-c3ccc(Cl)cc32)C1` (stereo not shown) [Example 1-383, 3-chloro-13-cyclohexyl-5-[2-(3-ethylpyrrolidin-1-yl)ethyl]-6,7-dihydro-5H-benzo[5,6][1,4]diazepino[7,1-a]indole-10-carboxylic acid dihydrochloride]: less than 100 nM; for `Cc1ccc2c(c1)N(CC(=O)N1CCN(S(C)(=O)=O)CC1)CCn1c-2c(C2CCCCC2)c2ccc(C(=O)O)cc21` [Example 1-571, 13-cyclohexyl-5-[2-(4-methanesulfonylpiperazin-1-yl)-2-oxoethyl]-3-methyl-6,7-dihydro-5H-benzo[5,6][1,4]diazepino[7,1-a]indole-10-carboxylic acid]: less than 100 nM.
Molecule `COCCOc1cc2[nH]c(C3(NC(=O)c4ccc5c(C6CCCCC6)c6n(c5c4)CCOc4cc(OC)ccc4-6)CCC3)nc2cc1CO` [Example 2-438, N-{1-[5-hydroxymethyl-6-(2-methoxyethoxy)-1H-benzimidazol-2-yl]cyclobutyl}-12-cyclohexyl-3-methoxy-6,7-dihydro-5-oxa-7a-azadibenzo[a,e]azulene-9-carboxamide] yielded an IC50 of less than 100 nM.
Turning to `CC1CCCN(CCN2CCn3c(c(C4CCCCC4)c4ccc(C(=O)O)cc43)-c3ccc(C(C)C)cc32)C1` (stereo not shown) [Example 1-340, 13-cyclohexyl-3-isopropyl-5-[2-(3-methylpiperidin-1-yl)ethyl]-6,7-dihydro-5H-benzo[5,6][1,4]diazepino[7,1-a]indole-10-carboxylic acid dihydrochloride], the IC50 was less than 100 nM.
As for `CC(C)(NC(=O)c1ccc2c(C3CCCCC3)c3n(c2c1)CCOc1ccccc1-3)C(=O)N1CCC(CO)CC1` [Example 2-242, N-[2-(4-hydroxymethylpiperidin-1-yl)-1,1-dimethyl-2-oxoethyl]-12-cyclohexyl-6,7-dihydro-5-oxa-7a-azadibenzo[a,e]azulene-9-carboxamide], the figure is less than 100 nM; as for `CN1CCCCC1COc1ccc2c(c1)OCCn1c-2c(C2CCCCC2)c2ccc(C(=O)O)cc21` (stereo not shown) [Example 2-45, 12-cyclohexyl-3-(1-methylpiperidin-2-ylmethoxy)-6,7-dihydro-5-oxa-7a-azadibenzo[a,e]azulene-9-carboxylic acid], less than 100 nM; as for `O=C(O)c1ccc2c(C3CCCCC3)c3n(c2c1)CCOc1cc(Oc2ccc(Cl)cc2)ccc1-3` [Example 2-31, 3-(4-chlorophenoxy)-12-cyclohexyl-6,7-dihydro-5-oxa-7a-azadibenzo[a,e]azulene-9-carboxylic acid], less than 100 nM.
Molecule `COCCO[C@@H]1CCCN(CCN2CCn3c(c(C4CCCCC4)c4ccc(C(=O)O)cc43)-c3ccc(C)cc32)C1` [Example 1-547, 13-cyclohexyl-5-{2-[(R)-3-(2-methoxyethoxy)piperidin-1-yl]ethyl}-3-methyl-6,7-dihydro-5H-benzo[5,6][1,4]diazepino[7,1-a]indole-10-carboxylic acid dihydrochloride] registered an IC50 of less than 100 nM.
As for `Cc1ccc2c(c1)N(CCN1CCCCCCC1)CCn1c-2c(C2CCCCC2)c2ccc(C(=O)O)cc21` [Example 1-278, 5-[2-(azocan-1-yl)ethyl]-13-cyclohexyl-3-methyl-6,7-dihydro-5H-benzo[5,6][1,4]diazepino[7,1-a]indole-10-carboxylic acid dihydrochloride], the figure is less than 100 nM; as for `CC(=O)Nc1ccc(N2CCOCC2)c(COc2ccc3c(c2)OCCn2c-3c(C3CCCCC3)c3ccc(C(=O)O)cc32)c1` [Example 2-15, 3-[5-acetylamino-2-(morpholin-4-yl)benzyloxy]-12-cyclohexyl-6,7-dihydro-5-oxa-7a-azadibenzo[a,e]azulene-9-carboxylic acid monohydrochloride], less than 100 nM.
`CN1CCCC1CCN1CCn2c(c(C3CCCCC3)c3ccc(C(=O)O)cc32)-c2ccc(Cl)cc21` (stereo not shown) [Example 1-426, 3-chloro-13-cyclohexyl-5-[2-(1-methylpyrrolidin-2-yl)ethyl]-6,7-dihydro-5H-benzo[5,6][1,4]diazepino[7,1-a]indole-10-carboxylic acid dihydrochloride] gave an IC50 of less than 100 nM.
On to `CC(C)(CN)NC(=O)c1ccc2c(C3CCCCC3)c3n(c2c1)CCOc1ccccc1-3` [Example 2-186, N-(2-amino-1,1-dimethylethyl)-12-cyclohexyl-6,7-dihydro-5-oxa-7a-azadibenzo[a,e]azulene-9-carboxamide monohydrochloride], for which the concentration for half-maximal inhibition (IC50) lay within 100 to 1000 nM.
As for `Cc1nc(C(C)(C)NC(=O)c2ccc3c(C4CCCCC4)c4n(c3c2)CCOc2ccccc2-4)n(C)c1C` [Example 2-259, N-[1-methyl-1-(1,4,5-trimethyl-1H-imidazol-2-yl)ethyl]-12-cyclohexyl-6,7-dihydro-5-oxa-7a-azadibenzo[a,e]azulene-9-carboxamide], the figure is less than 100 nM.
